Laboratory results: patent publication US4198502A, “Aminopyrrole derivatives” (Gruppo Lepetit S.p.A., priority 1973, dated 1980)

How the values were obtained:
[1] = acute toxicity (LD50), procedure of Lichtfield and Wilcoxon; details: mouse, in vivo, po, mice
Method: (§1) An aspect of the anti-inflammatory utility was evidenced by means of the carrageenin-induced edema test in rats, which was performed according to the methodology described by C. A. Winter et al., Proc. Soc. Exptl. Biol. Med., 111, 544, 1962. […] It is also to be noted that the toxicities of the aminopyrrole derivatives which are the object of the present invention are very low; with few exceptions, their LD50 values are always higher than 1000 mg/kg p.o. in mice. Toxicities were determined according to the procedure described by Lichtfield and Wilcoxon, J. Pharm. Exp. Therm., 96, 99, 1949.

[2] = tested on: carrageenin-induced edema; test: carrageenin-induced edema test in rats (anti-inflammatory); format: in vivo; details: Rattus norvegicus, po, read-out: % Decrease of the induced edema; for inhibition in vivo at 100 mg/kg: 100 mg/kg p.o.; for inhibition in vivo at 200 mg/kg: 200 mg/kg p.o.; for inhibition in vivo at 50 mg/kg: 50 mg/kg p.o.; for inhibition in vivo at 20 mg/kg: 20 mg/kg p.o.; for inhibition in vivo at 5 mg/kg: 5 mg/kg p.o.; for inhibition in vivo at 10 mg/kg: 10 mg/kg p.o.
Method: as §1
The following Table summarizes the aforementioned anti-inflammatory action and LD50 values.

[3] = CNS-depressant utility, general method of S. Irwin; details: in vivo
Source text: This characteristic was investigated according to the general method proposed by S. Irwin, Psychopharmacologia (Berl.), 13, 222, 1968. […] This is undoubtedly another vary favorable characteristic of the inventive compounds, as a certain sedative and myorelaxing effect is useful in patients affected by severe inflammatory disease.

| SMILES | LD50 [1] [mg/kg] | inhibition in vivo at 100 mg/kg [2] [%] | inhibition in vivo at 200 mg/kg [2] [%] | inhibition in vivo at 50 mg/kg [2] [%] | inhibition in vivo at 20 mg/kg [2] [%] | inhibition in vivo at 5 mg/kg [2] [%] | inhibition in vivo at 10 mg/kg [2] [%] | sedative and myorelaxing activity [3] |
| --- | --- | --- | --- | --- | --- | --- | --- | --- |
| CCOC(=O)c1c(C)[nH]c(-c2ccccc2)c1N.Cl [Example 2, 3-Amino-4-carbethoxy-5-methyl-2-phenylpyrrole hydrochloride] | > 1000 | 36.5 | 44.3 | – | – | – | – | – |
| CCCC(=O)c1c(CCC)[nH]c(-c2ccccc2)c1N.Cl [Example 34, 3-Amino-4-butyryl-2-phenyl-5-propylpyrrole hydrochloride] | ~1000 | 50 | 61.3 | 39.1 | – | – | – | – |
| CC(=O)c1c(C)[nH]c(-c2ccccc2)c1N(C)C [Example 43, 4-Acetyl-3-dimethylamino-5-methyl-2-phenylpyrrole] | > 1000 | 25.3 | 45.6 | – | – | – | – | – |
| CCC(=O)c1c(C)[nH]c(-c2ccccc2)c1N [Example 21, 3-Amino-5-methyl-2-phenyl-4-propionylpyrrole] | 500 | 43 | – | 36 | 25.3 | – | – | – |
| CC(=O)c1c(C)[nH]c(-c2ccc(Cl)cc2)c1N [Example 26, 4-Acetyl-3-amino-2-(p-chlorophenyl)-5-methylpyrrole] | > 1000 | 58.5 | 71 | 43.1 | 29.2 | – | – | – |
| CC(=O)c1c(C)[nH]c(-c2ccccc2C)c1N [Example 29, 4-Acetyl-3-amino-2-(o-tolyl)-5-methylpyrrole] | > 1000 | 33.8 | 42.6 | 26.4 | – | – | – | – |
| COc1ccc(C(=O)c2c(C)[nH]c(-c3ccccc3)c2N)cc1 [Example 24, 3-Amino-4-(p-methoxybenzoyl)-5-methyl-2-phenylpyrrole] | 500 | 42.2 | – | 32.3 | 20.6 | – | – | – |
| COc1ccc(-c2[nH]c(C)c(C(C)=O)c2N)cc1 [Example 14, 4-Acetyl-3-amino-2-(p-methoxyphenyl)-5-methylpyrrole] | > 1000 | 55.4 | 67.6 | 41.9 | 35.1 | 23 | 31.1 | – |
| CNC(=O)c1c(C)[nH]c(-c2ccccc2)c1N.Cl [Example 31, 3-Amino-5-methyl-4-methylcarbamoyl-2-phenylpyrrole hydrochloride] | ~1000 | 34.8 | 42 | 26.1 | – | – | – | – |
| CC(=O)c1c(N=Cc2ccccc2)c(-c2ccccc2)n(C)c1C [Example 49a, 4-acetyl-3-benzylideneamino-1,5-dimethyl-2-phenylpyrrole] | > 1000 | 31 | 53.1 | – | – | – | – | – |
| CC(=O)c1c(C)[nH]c(-c2ccccc2)c1N.Cl [Example 1, 4-Acetyl-3-amino-5-methyl-2-phenylpyrrole hydrochloride] | > 1000 | 58.9 | 76.6 | 43.8 | 39 | 23.4 | 32.5 | good degree of sedative and myorelaxing activity |
| Cc1[nH]c(-c2ccccc2)c(N)c1C(=O)C(C)C [Example 20, 3-Amino-4-isobutyryl-5-methyl-2-phenylpyrrole] | > 1000 | 37.3 | 44.9 | 24.2 | – | – | – | – |
| CCOC(=O)c1c(N)c[nH]c1C.Cl [Example 19, 3-Amino-4-carbethoxy-5-methylpyrrole hydrochloride] | 500 | 45.9 | – | 24.3 | – | – | – | – |
| CC(=O)c1c(N(C)C)c(-c2ccccc2)n(Cc2ccccc2Cl)c1C [Example 53, 4-Acetyl-1-(o-chlorobenzyl)-5-methyl-3-dimethylamino-2-phenylpyrrole] | > 1000 | 30 | 37.1 | – | – | – | – | – |
| CC(=O)c1c(N)c(-c2ccccc2)n(C)c1C [Example 49b, 4-Acetyl-3-amino-1,5-dimethyl-2-phenyl-pyrrole] | > 1000 | 34.3 | 52.7 | 11 | – | – | – | – |
| CC(=O)c1c(C)[nH]c(-c2ccccc2)c1N=Cc1ccc(Cl)cc1 [Example 45, 4-Acetyl-3-(p-chlorobenzylideneamino)-5-methyl-2-phenylpyrrole] | > 1000 | 47.9 | 68.2 | 23.9 | – | – | – | – |
| CC(=O)c1c(C)[nH]c(-c2ccccc2)c1N=Cc1ccccc1 [Example 46, 4-Acetyl-3-benzylideneamino-5-methyl-2-phenylpyrrole] | > 1000 | 47.9 | 69 | 35.2 | 23.9 | – | – | – |
| CCOC(=O)c1c[nH]c(-c2ccccc2)c1N.Cl [Example 6, 3-Amino-4-carbethoxy-2-phenylpyrrole hydrochloride] | > 1000 | 25.7 | 35 | – | – | – | – | – |
| COC(=O)c1c(C(N)=O)[nH]c(-c2ccccc2)c1N [Example 55, 3-Amino-5-carbamoyl-4-carbomethoxy-2-phenyl-pyrrole] | 1000 | 41.4 | 56.3 | 27.1 | – | – | – | – |
| CC(=O)c1c(N(C)C)c(-c2ccccc2)n(Cc2ccc(Cl)cc2)c1C [Example 54, 4-Acetyl-1-(p-chlorobenzyl)-5-methyl-3-dimethylamino-2-phenylpyrrole] | > 1000 | 38 | 47.6 | – | – | – | – | – |
| CC(=O)c1c(C)[nH]c(-c2ccc(C)cc2)c1N [Example 13, 4-Acetyl-3-amino-5-methyl-2-(p-tolyl)-pyrrole] | > 1000 | 69.6 | 75.4 | 50.7 | 43.5 | 23.2 | 31.9 | – |
| CCOC(=O)c1c(C)[nH]c(-c2ccc(C)cc2)c1N.Cl [Example 15, 3-Amino-4-carbethoxy-5-methyl-2-(p-tolyl)-pyrrole hydrochloride] | > 1000 | 40.8 | 58.3 | 29.6 | – | – | – | good degree of sedative and myorelaxing activity |
| Cc1[nH]c(-c2ccccc2)c(N)c1C(=O)c1ccccc1 [Example 3, 3-Amino-4-benzoyl-5-methyl-2-phenylpyrrole] | > 1000 | 40.6 | 53.9 | – | – | – | – | – |
| CC(=O)c1c(C)[nH]c(-c2ccc(F)cc2)c1N [Example 17, 4-Acetyl-3-amino-2-(p-fluorophenyl)-5-methylpyrrole] | > 1000 | 35.4 | 47.9 | – | – | – | – | – |
| CCCC(=O)c1c(C)[nH]c(-c2ccccc2)c1N.Cl [Example 35, 3-Amino-4-butyryl-5-methyl-2-phenylpyrrole hydrochloride] | 500 | 42 | – | 32.4 | – | – | – | – |
